# Experimental data published in patent US20220040136A1, “TREATMENT OF VULVOVAGINAL DISORDERS” (University of Rochester, priority 2018, published 2022).
# Test system: C57BL/6J mice
# Experiment: Mouse model of LPV, DHA cream (Example 4)
# Assay type: in vivo
# Excerpt: A total of 36 C57BL/6J mice were subjected to 6 weeks of allodynia induction using the protocol described above. Briefly, zymosan was used to induce sustained vulvar allodynia, measured by pain threshold testing. An electronic vonFrey system (MOUSEMET™, Topcat Metrology) was used to apply gradually increasing force to the vulva at the injection site, located at the midline posterior vulvar (between the vaginal opening and anus) (FIG. 7A). The hair was applied perpendicular to the vulvar surface with a gradually increasing force within a range of 0.100 g to 7.0 g (FIG. 7B). A positive response was defined as either (1) a reflexive, coordinated four extremity extension, (2) jump, or (3) immediate grooming of the vulva in response to vulvar stimulus, at which point the peak force was recorded.
# During allodynia induction, mice receive weekly injections of zymosan (10 mg/ml in 10 μl saline) for a maximum of 6 injections, until a >33% reduction in pain threshold is observed for 2 consecutive weeks of testing (FIG. 7C). Pain threshold testing was performed at the same time every week, immediately prior to zymosan injection; after the first 2 weeks of injections, a determination of threshold change was performed after pain testing to determine which mice would receive additional zymosan injections. […]
smiles,measurement,setting,value
"CC/C=C\C/C=C\C/C=C\C/C=C\C/C=C\C/C=C\CCC(=O)O [DHA, docosahexaenoic acid]",mice recovered from allodynia,"DHA cream group (12 mice), after 6 weeks of treatment, recovery = 70% improvement over lowest pain threshold for 2 consecutive tests",9 mice
same,first week at which mice began to recover,"DHA group, week = first week of a two-week period with 70% improvement, FIG. 13",1 week
